Patent US5530097A, “Human cancer inhibitory peptide amides” (Arizona Board of Regents acting on behalf of Arizona State …, priority 1994, dated 1996)

What was measured:
[1] = tested on: MX-1 Human Mammary Xenograft; test: Experimental anticancer activity in murine in vivo systems (Tumor Regression); settings: MX-1 (Tumor Regression)
PS-388 = PS-388 mouse leukemia cell line test; type: cell-based; settings: Mouse Leukemia PS-388
Procedure: (§1) ED50 (P388) and GI50 (HTCL) identify the drug dose which reduces the percent tumor/cell growth to 50%. There is no mathematical difference between ED50 and GI50, both of which are calculated using the same formula. The only difference is historical usage.
(§2) Each drug is tested at five (5) doses: 100--10-1-0.1--0.01 μg/mL. Percent Growths are calculated for each dose. The two (or three) doses with growth values above, below, (or near to) 50% growth are used to calculate the ED50 /GI50 values using a linear regression computation. If no dose yields a growth value under 50%, the results are expressed as: ED50 >(highest dose). If no dose yields growth higher than 50% growth, then ED50 <(lowest dose). Similar calculations are performed for the TGI at 0% growth, and at -50% growth for the LC50.
(§3) At the start of each experiment, cells from the in vitro cell cultures are inoculated into the appropriate tubes or microtiter plates. One set of control tubes/plates is immediately counted to determine the number of cells at the start of the experiment. This is the "baseline count", or "Tzero reading". At the end of the experiment (48 hrs later), a second set of control tubes/plates is analyzed to determine the "Control Growth" value. The growth (or death) of cells relative to the initial quantity of cells is used to define the "Percent of Growth."
(§4) Similarly, the compounds disclosed herein have also been tested against an NCI in vitro mini panel. For each of six cell lines GI50, TGI, and LC50 amounts were calculated for each compound. Each compound was also tested against the PS-388 cell line and for this test an ED50 was calculated.
(§5) The protocols followed, for the NCI minipanel are, except for the number of cell lines, those established by M. R. Boyd Ph.D., and well known to those of ordinary skill in the art. The procedure followed for the test against PS-388 Leukemia is the same that was followed in the superseded NCI P-388 screening test, which is also well known to those having ordinary skill in the art.

OVCAR-3 = test: NCI in vitro mini panel, human cancer cell line growth inhibition; type: cell-based; settings: Ovarian OVCAR-3, 48 hrs
Procedure: as §1
(§6) TGI, means "Total Growth Inhibition", and identifies the drug dose needed to yield zero percent growth, i.e. there are just as many cells at the end of the experiment as were present at the beginning. Whether just as many cells were killed as were produced (steady state), or no growth occurred (total inhibition) cannot be distinguished.
(§7) LC50, means "Lethal Concentration 50%", and identifies the drug concentration which reduces to one-half of the cells originally present at the beginning of the experiment.
as §2, §3, §4, §5

KM20L2 = test: as above; type: cell-based; settings: Colon KM20L2, 48 hrs
Procedure: as §1, §6, §7, §2, §3, §4, §5

SF-295 = test: as above; type: cell-based; settings: CNS SF-295, 48 hrs
Procedure: as §1, §6, §7, §2, §3, §4, §5

NCI-H460 = test: as above; type: cell-based; settings: Lung-NSC NCI-H460, 48 hrs
Procedure: as §1, §6, §7, §2, §3, §4, §5

A498 = test: as above; type: cell-based; settings: Renal A498, 48 hrs
Procedure: as §1, §6, §7, §2, §3, §4, §5

SK-MEL-5 = test: as above; type: cell-based; settings: Melanoma SK-MEL-5, 48 hrs
Procedure: as §1, §6, §7, §2, §3, §4, §5

## Dolastatin 10
[1]; 6.25 μg/kg
  T/C: 69
[1]; 13 μg/kg
  T/C: 61
[1]; 26 μg/kg
  T/C: 50
[1]; 52 μg/kg
  T/C: 14

## L-Dolavalyl-L-Leucyl-N-methyl-(3R,4S,5S)-Dolaisoleuinyl-(2R,3R,4S)-Dolaproinyl-L-Methionine N-3-quinolinamide [8g]
PS-388
  ED-50: 0.000271 µg/mL
OVCAR-3
  GI-50: < 0.000006 µg/mL
  LC-50: > 0.01 µg/mL
  TGI: 0.001 µg/mL
KM20L2
  GI-50: 0.000019 µg/mL
  LC-50: > 0.01 µg/mL
  TGI: 0.0012 µg/mL
SF-295
  GI-50: 0.00041 µg/mL
  LC-50: > 0.01 µg/mL
  TGI: > 0.01 µg/mL
NCI-H460
  GI-50: 0.00032 µg/mL
  LC-50: > 0.01 µg/mL
  TGI: 0.0012 µg/mL
A498
  GI-50: 0.00026 µg/mL
  LC-50: > 0.01 µg/mL
  TGI: > 0.01 µg/mL
SK-MEL-5
  GI-50: < 0.000006 µg/mL
  LC-50: > 0.01 µg/mL
  TGI: > 0.01 µg/mL

## L-Dolavalyl-L-Leucyl-N-methyl-(3R,4S,5S)-Dolaisoleuinyl-(2R,3R,4S)-Dolaproinyl-N-2(4-chlorophenyl) ethylamide [10d]
PS-388
  ED-50: 0.00586 µg/mL
OVCAR-3
  GI-50: 0.00029 µg/mL
  LC-50: > 1 µg/mL
  TGI: 0.012 µg/mL
KM20L2
  GI-50: 0.00011 µg/mL
  LC-50: > 1 µg/mL
  TGI: 0.011 µg/mL
SF-295
  GI-50: 0.0017 µg/mL
  LC-50: > 1 µg/mL
  TGI: 0.1 µg/mL
NCI-H460
  GI-50: 0.0024 µg/mL
  LC-50: > 1 µg/mL
  TGI: 0.0097 µg/mL
A498
  GI-50: 0.0059 µg/mL
  LC-50: > 1 µg/mL
  TGI: 0.29 µg/mL
SK-MEL-5
  GI-50: 0.00091 µg/mL
  LC-50: > 1 µg/mL
  TGI: > 1 µg/mL
